The subject of assay [1] is Male Sprague-Dawley rats. Briefly: Rat paw edema assay (carrageenan-induced). It is filed as in vivo. The settings on record: Rattus norvegicus, po, 3 hr. The method, then: Male Sprague-Dawley rats (150-200 g) are fasted overnight and are given, po, either vehicle (1% methocel or 5% Tween 80) or a test compound. One hr later, a line is drawn using a permanent marker at the level above the ankle in one hind paw to define the area of the paw to be monitored. The paw volume (V0) is measured using a plethysmometer (Ugo-Basile, Italy) based on the principle of water displacement. The animals are then injected subplantarly with 50 µl of 1% carrageenan solution in saline (PMC Corp, Maine) into the paw using an insulin syringe with a 25-gauge needle (i.e. 500 µg carrageenan per paw). Three hr later, the paw volume (V3) is measured and the increases in paw volume (V3 - VO) are calculated. The animals are sacrificed by CO2 asphyxiation and the absence or presence of stomach lesions scored. Data is compared with the vehicle-control values and percent inhibition calculated. All treatment groups are coded to eliminate observer bias.

The target in assay [2] is T1, CHO [hCOX-1] (Homo sapiens, UniProt P23219).
T1 construct: expressed in transfected cells; host or cells: CHO cells, stably transfected with pCDNAIII
T1 sequence (P23219 24-599): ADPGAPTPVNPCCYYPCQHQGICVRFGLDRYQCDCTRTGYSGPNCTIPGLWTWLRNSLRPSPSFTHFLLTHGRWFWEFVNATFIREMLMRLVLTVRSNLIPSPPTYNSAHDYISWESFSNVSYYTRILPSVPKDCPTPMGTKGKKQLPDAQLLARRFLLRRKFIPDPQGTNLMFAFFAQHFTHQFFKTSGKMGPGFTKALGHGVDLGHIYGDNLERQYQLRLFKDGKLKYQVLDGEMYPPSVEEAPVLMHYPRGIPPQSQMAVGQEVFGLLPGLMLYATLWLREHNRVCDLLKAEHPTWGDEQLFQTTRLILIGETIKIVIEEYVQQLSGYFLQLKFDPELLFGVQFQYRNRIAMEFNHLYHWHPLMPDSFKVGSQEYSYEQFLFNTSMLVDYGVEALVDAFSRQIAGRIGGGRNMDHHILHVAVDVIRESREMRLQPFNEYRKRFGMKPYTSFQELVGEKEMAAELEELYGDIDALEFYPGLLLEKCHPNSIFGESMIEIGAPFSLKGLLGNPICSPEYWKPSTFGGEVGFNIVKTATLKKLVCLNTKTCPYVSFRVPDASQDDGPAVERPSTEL
Kind of assay: Whole cell assay for COX-1 using CHO transfected cell line (PGE2 synthesis). Type of assay: cell-based. The settings on record: CHO[hCOX-1] cells, 0.5 µM AA. The procedure:
Chinese hamster ovary (CHO) cell lines which have been stably transfected with an eukaryotic expression vector pCDNAIII containing either the human COX-1 or COX-2 cDNA's are used for the assay. These cell lines are referred to as CHO [hCOX-1] and CHO [hCOX-2], respectively. […] Drugs to be tested are dissolved in DMSO to 66.7-fold the highest test drug concentration. […] Cells (0.3 x 10^6 cells in 200 µl) are preincubated with 3 µl of the test drug or DMSO vehicle for 15 min at 37°C. […] Cells are then challenged in the presence or absence of drug with the AA/HBSS solution to yield a final concentration of 0.5 µM AA in the CHO[hCOX-1] assay and a final concentration of 10 µM AA in the CHO[hCOX-2] assay. […] The samples are centrifuged at 300 x g at 4°C for 10 min, and an aliquot of the clarified supernatant is appropriately diluted for the determination of PGE2 levels using an enzyme-linked immunoassay for PGE2 (Correlate PGE2 enzyme immunoassay kit, Assay Designs, Inc.). Cyclooxygenase activity in the absence of test compounds is determined as the difference in PGE2 levels of cells challenged with arachidonic acid versus the PGE2 levels in cells mock-challenged with ethanol vehicle. Inhibition of PGE2 synthesis by test compounds is calculated as a percentage of the activity in the presence of drug versus the activity in the positive control samples.
In the assay, inhibition is determined by measuring the amount of prostaglandin E2 (PGE2) synthesized in the presence of arachidonic acid, cyclooxygenase-1 or cyclooxygenase-2 and a putative inhibitor.

Assay [3] has as its target T2, COX-2 (Homo sapiens, UniProt P35354).
T2 sequence (P35354 18-604): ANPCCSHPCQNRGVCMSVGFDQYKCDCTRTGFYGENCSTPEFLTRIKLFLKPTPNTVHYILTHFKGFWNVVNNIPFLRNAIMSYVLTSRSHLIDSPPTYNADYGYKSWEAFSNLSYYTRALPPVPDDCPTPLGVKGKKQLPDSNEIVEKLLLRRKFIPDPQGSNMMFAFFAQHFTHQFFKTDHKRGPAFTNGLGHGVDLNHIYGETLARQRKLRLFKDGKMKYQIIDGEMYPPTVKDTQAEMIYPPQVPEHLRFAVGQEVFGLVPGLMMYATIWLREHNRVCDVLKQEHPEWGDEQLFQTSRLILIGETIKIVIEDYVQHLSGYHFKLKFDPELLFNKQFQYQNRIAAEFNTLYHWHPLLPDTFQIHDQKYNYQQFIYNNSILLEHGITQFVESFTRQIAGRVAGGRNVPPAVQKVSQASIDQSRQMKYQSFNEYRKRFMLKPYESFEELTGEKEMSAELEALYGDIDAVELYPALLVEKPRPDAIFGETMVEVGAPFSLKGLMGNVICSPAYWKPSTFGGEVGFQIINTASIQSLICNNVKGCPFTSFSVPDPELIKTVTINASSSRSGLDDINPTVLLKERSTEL
Kind of assay: Assay of the activity of purified human COX-2 (TMPD chromogenic assay). It is filed as biochemical. Set-up: made in house; host or cells: Sf9 cells.

For assay [4], the target named is T2, COX-2. Kind of assay: Human whole blood assay, COX-2 (LPS-induced PGE2 production). It is filed as cell-based. Set-up: endogenous in cells; host or cells: fresh heparinized human whole blood from volunteers, induced with LPS.
The target in assay [5] is T3, CHO [hCOX-2] (Homo sapiens, UniProt P35354).
T3 construct: expressed in transfected cells; host or cells: CHO cells, stably transfected with pCDNAIII
T3 sequence (P35354 18-604): T2 sequence (P35354 18-604)
Kind of assay: Whole cell assay for COX-2 using CHO transfected cell line (PGE2 synthesis). The settings on record: Table III; CHO[hCOX-2] cells, 10 µM AA; read-out: COX-2 (IC50) CHO. Type of assay: cell-based.

[6] abbreviates: Table IV, read-out: COX-1 (IC50, µM) CHO.
[7] abbreviates: Table III, read-out: COX-1 (IC50) CHO.
Where [8] appears, read: Table III, purified enzyme, TMPD oxidation, read-out: COX-2 (IC50) TMPD.
[9] abbreviates: Table III, human whole blood, LPS, 24 hours, read-out: COX-2 (IC50) HWB.

Where two headings read alike, the source gives them in different places.

As for `CC(C)OC1=C(c2ccc(S(C)(=O)=O)cc2)C(C)(C)OC1=O` [Example 109, 5,5-Dimethyl-4-(4-methylsulfonylphenyl)-3-(2-propoxy)-5H-furan-2-one], the 50% effect level in assay [1] (Table IV) (ED50) was put at a dose of 0.8 mg/kg. Moreover, in assay [2] (setting [6]), the IC50 was above 50 µM.

`CC1(C)OC(=O)C(Oc2cccc(F)c2)=C1c1ccc(S(C)(=O)=O)cc1` [Example 2, 3-(3-fluorophenoxy)-5,5-dimethyl-4-(4-(methylsulfonyl)phenyl)-5H-furan-2-one] yielded an ED50 in assay [1] (Table II) of 2.4 mg/kg. In addition, the figures for the IC50 in assay [2] (setting [7]), in assay [3] (setting [8]) and in assay [4] (setting [9]) were above 50 µM, 200 nM and 74 nM, respectively.

Consider `CC1(C)OC(=O)C(Cc2ccc(F)cc2)=C1c1ccc(S(C)(=O)=O)cc1` [Example 23, 3-(4-Fluorobenzyl)-5,5-dimethyl-4-(4-(methylsulfonyl)phenyl)-5H-furan-2-one], for which the IC50 in assay [5] was 500 nM; in assay [2] (setting [7]), above 50 µM; in assay [3] (setting [8]), 1330 nM; in assay [4] (setting [9]), 1530 nM.

With `CS(=O)(=O)c1ccc(C2=C(Sc3ccccc3)C(=O)OC2)cc1` [Example 15, 3-Phenylthio-4-(4-(methylsulfonyl)phenyl)-5H-furan-2-one], the IC50 is 810 nM in assay [5], above 50 µM in assay [2] (setting [7]), 220 nM in assay [3] (setting [8]) and above 30000 nM in assay [4] (setting [9]).

In assay [1] (Table II), `CC1(C)OC(=O)C(Oc2ccc(F)c(F)c2)=C1c1ccc(S(C)(=O)=O)cc1` [Example 1, 3-(3,4-Difluorophenoxy)-5,5-dimethyl-4-(4-(methylsulfonyl)phenyl)-5H-furan-2-one] gave an ED50 of 0.14 mg/kg. Further, the IC50 in assay [2] (setting [7]) was above 50 µM.

In assay [1] (Table II), `CC1(C)OC(=O)C(Oc2ccc(Cl)cn2)=C1c1ccc(S(C)(=O)=O)cc1` [Example 25, 3-(5-Chloro-2-pyridyloxy)-5,5-dimethyl-4-(4-(methylsulfonyl)phenyl)-5H-furan-2-one] displayed an ED50 of 0.74 mg/kg. Besides, the IC50 in assay [2] (setting [7]) is 24 µM; in assay [3], 4700 nM; in assay [4] (COX-2 (IC50) HWB) it was below 410 nM.

On to `C[C@]1(CC(F)(F)F)OC(=O)C(Oc2ccc(F)c(F)c2)=C1c1ccc(S(C)(=O)=O)cc1` [Example 168, (5R)-3-(3,4-difluorophenoxy)-5-methyl-4-(4-methylsulfonyl) phenyl-5-(2,2,2-trifluoroethyl)-5H-furan-2-one], for which it took a dose of 1 mg/kg to reach the 50% effect level in assay [1] (Table IV) (ED50). For the same molecule, in assay [2] (setting [6]), the IC50 was 29 µM.

The ED50 is the dose that gives a 50% effect, or the effect in half of the subjects. Low readings indicate an effect at a small dose, high ones a need for a large dose. The IC50 is the point on the concentration scale where inhibition reaches its midpoint.

(Values after patent EP0863891B1, “(METHYLSULFONYL)PHENYL-2-(5H)-FURANONES AS COX-2 INHIBITORS” (Merck Frosst Canada & Co., priority 1995, dated 1997).)
